ChEMBL document CHEMBL1201862, “PubChem BioAssay data set” (2004)
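Method: 48-hour compound exposure of cells in 96-well plates, five concentrations, linear interpolation of endpoints. Abbreviation: GI50, concentration required for 50% inhibition of growth.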 Active and inactive are the calls of the source. Cut-off read from the data, not from the text of the source: active = GI50 up to about 1.1 µM and inactive = higher.

Experiments:
Assay in all cases: DTP human tumour cell line panel, 48 h
[1] = tested on: RXF 631
[2] = tested on: DLD-1
[3] = tested on: XF498
[4] = tested on: KM-20L2
[5] = tested on: HOP-18
[6] = tested on: DMS-273
[7] = tested on: DMS-114
[8] = tested on: LXFL 529
[9] = tested on: SNB-78

Measured: GI50

CCC12C=CCN(CCc3c([nH]c4ccccc34)/C=C\1)C2 (stereo unspecified)
inactive: [1] > 100 µM | [2] > 10 µM | [3] > 100 µM | [4] > 100 µM | [5] > 100 µM | [6] > 100 µM | [7] > 100 µM | [8] > 100 µM

O=C(CC1(O)C(=O)Nc2c(Cl)ccc(Cl)c21)c1ccc(F)cc1 (stereo unspecified)
inactive: [1] 37 µM | [9] 35.6 µM | [2] 52.5 µM | [3] 32.7 µM | [4] 39.8 µM | [5] 29.6 µM | [6] 33.7 µM | [7] 22.7 µM | [8] 19.4 µM

O=C(O)CSc1nnc(-c2ccccc2O)[nH]1
inactive: [1] > 100 µM | [9] > 100 µM | [2] > 100 µM | [3] > 100 µM | [4] > 100 µM | [6] > 100 µM | [7] > 100 µM | [8] > 100 µM

CC1=NN(C(=O)Nc2ccccc2)C(=O)C2CCC(=O)N12 (stereo unspecified)
inactive: [1] > 100 µM | [9] > 100 µM | [2] > 100 µM | [3] > 100 µM | [4] > 100 µM | [6] > 100 µM | [7] > 100 µM | [8] > 100 µM

Cc1nc2sccn2c1C(=O)NN
inactive: [1] > 100 µM | [2] > 100 µM | [3] > 100 µM | [4] > 100 µM | [5] 21.6 µM | [6] > 100 µM | [7] > 100 µM | [8] > 100 µM
